Laboratory results as given in ChEMBL document CHEMBL5380853, “Lead Optimization of Androgen Receptor-HSP27 Disrupting Agents in Glioblastoma” (J Med Chem, 2023).
Active and inactive are the calls of the source. No cut-off for these calls is given here.

Tests used:
T98G [1] = assay: Down regulation of androgen receptor activity in AR-overexpressing human T98G cells at 100 nM measured after 12 hrs by Western blotting analysis; format: functional, cell-based
T98G [2] = assay: Down regulation of androgen receptor activity in AR-overexpressing human T98G cells at 50 nM measured after 12 hrs by Western blotting analysis; format: functional, cell-based
[3] = biological target: Heat shock protein beta-1 (Homo sapiens) (UniProt P04792); assay: Inhibition of HSP27 alpha-crystallin (unknown origin) activity assessed as DTT-induced insulin B chain aggregation at 10 uM measured upto 2 hrs by microplate reader-based HSP27 chaperone activity assay
[4] = biological target: Heat shock protein beta-1 (Homo sapiens) (UniProt P04792); assay: Inhibition of HSP27 chaperone activity in AR-overexpressing human U87 cells assessed as down regulation of androgen receptor level at 25 to 100 nM by Western blotting analysis; format: cell-based; conditions: dose lower […], dose upper 100.0 nM
[5] = biological target: Heat shock protein beta-1 (Homo sapiens) (UniProt P04792); assay: Inhibition of HSP27 chaperone activity in AR-overexpressing human T98G cells assessed as down regulation of androgen receptor level at 25 to 100 nM by Western blotting analysis; format: cell-based; conditions: dose lower […], dose upper 100.0 nM
[6] = biological target: Heat shock protein beta-1 (Homo sapiens) (UniProt P04792); assay: Inhibition of HSP27 chaperone activity in human T98G cells expressing AR-V7 mutant assessed as down regulation of androgen receptor level at 25 to 100 nM by Western blotting analysis; format: cell-based; conditions: dose lower […], dose upper 100.0 nM
[7] = biological target: Heat shock protein beta-1 (Homo sapiens) (UniProt P04792); assay: Inhibition of HSP27 in AR-overexpressing human U87 cells assessed as androgen receptor degradation by measuring decrease in free cytoplasmic AR level at 50 nM measured after 12 hrs by immunofluorescence assay; format: cell-based
[8] = biological target: Heat shock protein beta-1 (Homo sapiens) (UniProt P04792); assay: Inhibition of HSP27 in AR-overexpressing human T98G cells assessed as androgen receptor degradation by measuring decrease in free cytoplasmic AR level at 50 nM measured after 12 hrs by immunofluorescence assay; format: cell-based
U-87MG ATCC = assay: Effect on nucleus AR level in AR-overexpressing human U87 cells at 50 nM measured after 12 hrs by immunofluorescence assay; format: functional, cell-based
T98G [9] = assay: Effect on nucleus AR level in AR-overexpressing human T98G cells at 50 nM measured after 12 hrs by immunofluorescence assay; format: functional, cell-based
U-87 MG [10] = assay: Antitumor activity against human U87 cells xenografted in mouse assessed as decrease in tumor size at 20 mg/kg, ip administered weekly 3 times for 14 days; format: functional, organism-based; conditions: U-87MG ATCC, time 14.0 day
[11] = Toxicity in mouse xenografted with human U87 cells assessed as body weight at 20 mg/kg, ip administered weekly 3 times for 14 days; format: organism-based, U-87MG ATCC; conditions: in vivo, 336 h, time 14 day
U-87 MG [12] = assay: In vivo antitumor activity against human U87 cells xenografted in mouse assessed as decrease in tumor weight at 20 mg/kg, ip administered weekly 3 times for 14 days relative to control; format: functional, organism-based; conditions: U-87MG ATCC, time 14.0 day
U-87 MG [13] = assay: In vivo antitumor activity against human U87 cells xenografted in mouse assessed as decrease in AR protein level in tumor at 20 mg/kg, ip administered weekly 3 times for 14 days relative to control; format: functional, organism-based; conditions: U-87MG ATCC, time 14.0 day
[14] = Apparent half life in mouse plasma at 20 mg/kg, ip measured for 24 hrs by LC-MS/MS analysis; format: ADME, organism-based; conditions: in vivo, ip, 20 mg/kg, 24 h
[15] = Cmax in mouse plasma at 20 mg/kg, ip measured for 24 hrs by LC-MS/MS analysis; format: ADME, organism-based; design: time 24 hrs, dose 20 mg/kg, route ip; conditions: in vivo
[16] = AUC (0 to 24 hrs) in mouse plasma at 20 mg/kg, ip measured for 24 hrs by LC-MS/MS analysis; format: ADME, organism-based; design: dose 20 mg/kg, time 24 hrs, route ip; conditions: in vivo
[17] = AUC (0 to infinity) in mouse plasma at 20 mg/kg, ip measured for 24 hrs by LC-MS/MS analysis; format: ADME, organism-based; design: time 24 hrs, dose 20 mg/kg, route ip; conditions: in vivo
[18] = Apparent Half life in mouse brain at 20 mg/kg, ip measured for 24 hrs by LC-MS/MS analysis; format: ADME, organism-based; conditions: in vivo
[19] = Cmax in mouse brain at 20 mg/kg, ip measured for 24 hrs by LC-MS/MS analysis; format: ADME, organism-based; design: dose 20 mg/kg, time 24 hrs, route ip
[20] = AUC (0 to 24 hrs) in mouse brain at 20 mg/kg, ip measured for 24 hrs by LC-MS/MS analysis; format: ADME, organism-based; design: dose 20 mg/kg, time 24 hrs, route ip; conditions: in vivo
[21] = AUC (0 to infinity) in mouse brain at 20 mg/kg, ip measured for 24 hrs by LC-MS/MS analysis; format: ADME, organism-based; design: time 24 hrs, dose 20 mg/kg, route ip; conditions: in vivo
[22] = Toxicity in C57BL/6 mouse assessed as body weight change at 100 mg/kg, ip treated for 10 days; format: organism-based; conditions: in vivo, 240 h, time 10 day
[23] = Toxicity in C57BL/6 mouse assessed as kidney histology by measuring necrosis/glomerular atrophy at 100 mg/kg, ip treated for 10 days by hematoxylin and eosin staining based assay; format: organism-based; conditions: in vivo, 240 h, time 10 day
[24] = Toxicity in C57BL/6 mouse assessed as spleen histology by measuring intact/distinct spleen-follical at 100 mg/kg, ip treated for 10 days by hematoxylin and eosin staining based assay; format: organism-based; conditions: in vivo, 240 h, time 10 day
[25] = Toxicity in C57BL/6 mouse assessed as lung histology by measuring injury/fibrosis at 100 mg/kg, ip treated for 10 days by hematoxylin and eosin staining based assay; format: organism-based; conditions: in vivo, 240 h, time 10 day
[26] = Toxicity in C57BL/6 mouse assessed as liver histology at 100 mg/kg, ip treated for 10 days by hematoxylin and eosin staining based assay; format: organism-based; conditions: in vivo, 240 h, time 10 day
[27] = Toxicity in C57BL/6 mouse assessed as heart histology by measuring infarcts/inflammatory cell infiltration at 100 mg/kg, ip treated for 10 days by hematoxylin and eosin staining based assay; format: organism-based; conditions: in vivo, 240 h, time 10 day
[28] = Toxicity in C57BL/6 mouse assessed as physical condition at 100 mg/kg, ip treated for 10 days; format: organism-based; conditions: in vivo, 240 h, time 10 day

Chain of Heat shock protein beta-1 (Homo sapiens) (P04792 whole entry): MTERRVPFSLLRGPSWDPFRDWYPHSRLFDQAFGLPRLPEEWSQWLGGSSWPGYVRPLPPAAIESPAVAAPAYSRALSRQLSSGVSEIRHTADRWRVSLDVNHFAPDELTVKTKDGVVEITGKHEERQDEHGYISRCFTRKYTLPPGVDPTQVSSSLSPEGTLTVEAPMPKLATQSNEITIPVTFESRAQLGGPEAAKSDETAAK

SMILES | Activity (T98G [1]) | Activity (T98G [2]) | inhibition [3] | inhibition [4] | inhibition [5] | inhibition [6] | inhibition [7] | inhibition [8] | Activity (U-87MG ATCC) | Activity (T98G [9]) | Activity (U-87 MG [10]) | Activity [11] | Activity (U-87 MG [12]) | Activity (U-87 MG [13]) | t1/2 [14] | Cmax [15] | AUC [16] | AUC [17] | t1/2 [18] | AUC [20] | also measured
COc1ccc(OC)c(COc2cc(NC(=O)c3ccc4c(c3)OCO4)ccc2NS(C)(=O)=O)c1 | Active | Active | Active | Active | Active | Active | Active | Active | inactive | inactive | Active | Non-Toxic | Active | Active | 1.49 h | 20200 ng/mL | 20020 ng·h/mL | 32130 ng·h/mL | 0.57 h | 0.31 µg·h/g | Cmax ([19]; brain, read-out: Cmax): 680 ng/g; AUC [21]: 0.62 µg·h/g; Activity [22]: Non-Toxic; Activity [23]: Non-Toxic; Activity [24]: Non-Toxic; Activity [25]: Non-Toxic; Activity [26]: Non-Toxic; Activity [27]: Non-Toxic; Activity [28]: Non-Toxic
COc1ccc(OC)c(COc2cc(NC(=O)c3ccc4ccccc4c3)ccc2NS(C)(=O)=O)c1 | Active | Active | Active | Active | Active | Active | Active | Active | inactive | inactive | Active | Non-Toxic | Active | Active | 6.28 h | 30620 ng/mL | 61920 ng·h/mL | 80840 ng·h/mL | 8.66 h | 1.34 µg·h/g | Cmax ([19]; in vivo, 24 h): 760 ng/g; AUC [21]: 2.44 µg·h/g; Activity [22]: Non-Toxic; Activity [23]: Non-Toxic; Activity [24]: Non-Toxic; Activity [25]: Non-Toxic; Activity [26]: Non-Toxic; Activity [27]: Non-Toxic; Activity [28]: Non-Toxic
